US9598414B2, “Substituted benzo[5,6]azepino[3,2,1-hi]pyrido[4,3-b]indoles and substituted benzo[6,7][1,4]oxazepino[2,3,4-hi]pyrido[4,3-b]indoles for treating CNS disorders” (Daya Drug Discoveries, Inc., priority 2013, dated 2017)
Read-outs that look alike come from different tables or passages of the source.

What was measured:
Serotonin 5-HT2B = Serotonin 5-HT2B (Homo sapiens, UniProt P41595); assay: Receptor binding, 5-HT2B
Serotonin 5-HT1D = Serotonin 5-HT1D (Homo sapiens, UniProt P28221); assay: Receptor binding, 5-HT1D
Chain of Serotonin 5-HT1D (P28221 whole entry): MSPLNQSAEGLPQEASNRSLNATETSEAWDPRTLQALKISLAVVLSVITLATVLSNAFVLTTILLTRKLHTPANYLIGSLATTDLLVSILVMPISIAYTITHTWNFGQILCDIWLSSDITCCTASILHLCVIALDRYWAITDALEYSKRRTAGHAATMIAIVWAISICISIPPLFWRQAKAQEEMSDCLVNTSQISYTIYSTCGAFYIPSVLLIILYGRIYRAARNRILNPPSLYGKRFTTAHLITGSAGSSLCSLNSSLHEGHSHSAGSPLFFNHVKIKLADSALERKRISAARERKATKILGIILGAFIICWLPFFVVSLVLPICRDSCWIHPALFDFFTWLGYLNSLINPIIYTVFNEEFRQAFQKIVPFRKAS

α-Adrenergic α1A = α-Adrenergic α1A (Homo sapiens, UniProt P35348); assay: Receptor binding, α1A
α-Adrenergic α2B = molecular target: T1, α-Adrenergic α2B (Homo sapiens, UniProt P18089); assay: Receptor binding, α2B
T1 sequence (P18089 1-450): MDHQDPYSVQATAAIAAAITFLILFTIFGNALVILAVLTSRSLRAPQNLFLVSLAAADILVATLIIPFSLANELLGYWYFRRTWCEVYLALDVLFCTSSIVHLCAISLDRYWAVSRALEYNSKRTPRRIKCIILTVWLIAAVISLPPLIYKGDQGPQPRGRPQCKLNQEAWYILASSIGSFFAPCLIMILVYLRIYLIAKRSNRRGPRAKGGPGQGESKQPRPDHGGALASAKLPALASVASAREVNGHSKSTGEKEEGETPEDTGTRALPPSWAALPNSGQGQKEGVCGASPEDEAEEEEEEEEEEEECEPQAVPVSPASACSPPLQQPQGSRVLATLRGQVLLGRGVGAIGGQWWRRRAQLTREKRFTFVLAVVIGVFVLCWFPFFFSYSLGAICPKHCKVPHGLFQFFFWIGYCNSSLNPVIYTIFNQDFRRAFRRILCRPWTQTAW

Serotonin 5-HT2C = molecular target: T2, Serotonin 5-HT2C (Homo sapiens, UniProt P28335); assay: Receptor binding, 5-HT2C; conditions: 5-HT2C
T2 sequence (P28335 33-458): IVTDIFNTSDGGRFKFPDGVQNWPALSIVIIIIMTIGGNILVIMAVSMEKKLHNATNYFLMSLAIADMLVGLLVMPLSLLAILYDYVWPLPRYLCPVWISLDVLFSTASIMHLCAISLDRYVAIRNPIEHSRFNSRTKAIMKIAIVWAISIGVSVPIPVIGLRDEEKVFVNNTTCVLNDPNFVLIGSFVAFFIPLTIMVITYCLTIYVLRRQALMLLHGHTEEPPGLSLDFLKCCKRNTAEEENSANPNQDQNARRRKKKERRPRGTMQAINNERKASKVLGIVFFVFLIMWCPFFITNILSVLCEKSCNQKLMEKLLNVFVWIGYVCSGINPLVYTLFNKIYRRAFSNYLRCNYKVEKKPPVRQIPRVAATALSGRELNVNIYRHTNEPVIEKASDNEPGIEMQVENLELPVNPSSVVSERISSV

α-Adrenergic α1D = α-Adrenergic α1D (Homo sapiens, UniProt P25100); assay: Receptor binding, α1D
Serotonin 5-HT1A = molecular target: T3, Serotonin 5-HT1A (Homo sapiens, UniProt P08908); assay: Receptor binding, 5-HT1A
T3 sequence (P08908 1-422): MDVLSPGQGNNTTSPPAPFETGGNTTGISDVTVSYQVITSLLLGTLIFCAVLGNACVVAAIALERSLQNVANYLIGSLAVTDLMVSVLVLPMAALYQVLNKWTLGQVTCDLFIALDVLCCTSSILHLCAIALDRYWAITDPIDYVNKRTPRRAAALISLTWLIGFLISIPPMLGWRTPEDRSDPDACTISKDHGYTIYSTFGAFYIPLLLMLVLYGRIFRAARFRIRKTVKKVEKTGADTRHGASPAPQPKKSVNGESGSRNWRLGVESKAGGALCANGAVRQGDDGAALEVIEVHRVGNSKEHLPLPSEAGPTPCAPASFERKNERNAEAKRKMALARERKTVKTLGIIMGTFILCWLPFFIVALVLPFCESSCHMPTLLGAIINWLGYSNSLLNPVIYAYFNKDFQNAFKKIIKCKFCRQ

Sigma σ2 = Sigma σ2 (Homo sapiens, UniProt Q5BJF2); assay: Receptor binding, σ2; conditions: σ2
Chain of Sigma σ2 (Q5BJF2 whole entry): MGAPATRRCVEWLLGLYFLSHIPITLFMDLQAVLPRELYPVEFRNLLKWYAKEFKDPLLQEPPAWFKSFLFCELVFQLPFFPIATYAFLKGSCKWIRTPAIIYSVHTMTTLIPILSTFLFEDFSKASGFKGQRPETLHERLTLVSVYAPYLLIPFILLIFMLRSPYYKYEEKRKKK

Dopamine D5 = Dopamine D5 (Homo sapiens, UniProt P21918); assay: Receptor binding, D5
Serotonin 5-HT1B = Serotonin 5-HT1B (Homo sapiens, UniProt P28222); assay: Receptor binding, 5-HT1B
Chain of Serotonin 5-HT1B (P28222 whole entry): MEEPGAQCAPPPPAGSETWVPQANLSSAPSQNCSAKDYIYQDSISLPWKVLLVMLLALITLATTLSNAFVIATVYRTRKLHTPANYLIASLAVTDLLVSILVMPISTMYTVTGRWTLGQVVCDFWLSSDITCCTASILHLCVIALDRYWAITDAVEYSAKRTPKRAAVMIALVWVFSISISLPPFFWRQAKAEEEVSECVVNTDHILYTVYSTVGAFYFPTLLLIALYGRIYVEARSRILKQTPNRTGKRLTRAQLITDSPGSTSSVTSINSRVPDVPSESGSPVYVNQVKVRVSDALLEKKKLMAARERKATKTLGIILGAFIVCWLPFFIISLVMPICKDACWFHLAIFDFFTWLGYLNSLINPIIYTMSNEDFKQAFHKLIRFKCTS

Serotonin 5-HT6 = Serotonin 5-HT6 (Homo sapiens, UniProt P50406); assay: Receptor binding, 5-HT6; conditions: for Ki: 5-HT6
Chain of Serotonin 5-HT6 (P50406 whole entry): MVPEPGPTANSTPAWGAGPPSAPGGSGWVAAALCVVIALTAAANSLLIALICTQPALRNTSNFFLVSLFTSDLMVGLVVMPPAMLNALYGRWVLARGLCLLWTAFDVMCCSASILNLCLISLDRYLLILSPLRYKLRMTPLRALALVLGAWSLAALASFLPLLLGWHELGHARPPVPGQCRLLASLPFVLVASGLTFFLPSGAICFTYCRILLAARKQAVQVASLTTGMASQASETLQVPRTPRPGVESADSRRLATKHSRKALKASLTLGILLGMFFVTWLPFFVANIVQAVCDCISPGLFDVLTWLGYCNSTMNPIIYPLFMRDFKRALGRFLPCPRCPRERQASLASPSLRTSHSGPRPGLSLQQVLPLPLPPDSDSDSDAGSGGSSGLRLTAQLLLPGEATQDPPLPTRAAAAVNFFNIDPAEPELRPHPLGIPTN

α-Adrenergic α1B = α-Adrenergic α1B (Homo sapiens, UniProt P35368); assay: Receptor binding, α1B
Dopamine D2 = Dopamine D2 (Homo sapiens, UniProt P14416); assay: Receptor binding, D2
Chain of Dopamine D2 (P14416 whole entry): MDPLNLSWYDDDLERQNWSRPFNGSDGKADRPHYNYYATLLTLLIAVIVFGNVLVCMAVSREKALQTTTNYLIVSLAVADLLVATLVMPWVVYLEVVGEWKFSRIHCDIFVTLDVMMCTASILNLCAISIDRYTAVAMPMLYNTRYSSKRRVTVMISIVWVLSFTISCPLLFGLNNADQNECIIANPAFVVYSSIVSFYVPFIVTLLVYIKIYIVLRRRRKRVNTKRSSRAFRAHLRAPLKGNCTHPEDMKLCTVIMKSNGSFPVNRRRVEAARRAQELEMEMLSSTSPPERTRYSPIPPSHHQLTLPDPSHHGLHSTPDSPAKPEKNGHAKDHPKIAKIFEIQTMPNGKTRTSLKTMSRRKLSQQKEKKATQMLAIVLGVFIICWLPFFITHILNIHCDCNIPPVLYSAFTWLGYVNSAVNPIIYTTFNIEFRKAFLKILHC

Muscarinic M5 = Muscarinic M5 (Homo sapiens, UniProt P08912); assay: Receptor binding, M5
Chain of Muscarinic M5 (P08912 whole entry): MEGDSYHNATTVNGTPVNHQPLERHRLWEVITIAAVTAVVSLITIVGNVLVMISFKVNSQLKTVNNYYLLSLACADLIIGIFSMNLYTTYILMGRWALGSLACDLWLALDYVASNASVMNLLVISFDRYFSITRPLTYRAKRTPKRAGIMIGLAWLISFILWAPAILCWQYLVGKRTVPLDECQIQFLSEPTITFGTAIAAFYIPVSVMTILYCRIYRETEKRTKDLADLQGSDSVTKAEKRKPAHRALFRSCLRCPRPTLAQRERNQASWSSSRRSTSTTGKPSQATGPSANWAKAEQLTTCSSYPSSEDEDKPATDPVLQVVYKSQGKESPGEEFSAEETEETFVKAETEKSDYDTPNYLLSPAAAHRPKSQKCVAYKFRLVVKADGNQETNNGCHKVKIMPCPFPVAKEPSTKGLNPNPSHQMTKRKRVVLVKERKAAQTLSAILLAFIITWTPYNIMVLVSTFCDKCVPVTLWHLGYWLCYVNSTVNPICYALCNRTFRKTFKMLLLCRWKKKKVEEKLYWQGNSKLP

Muscarinic M1 = Muscarinic M1 (Homo sapiens, UniProt P11229); assay: Receptor binding, M1
Histamine H1 = Histamine H1 (Homo sapiens, UniProt P35367); assay: Receptor binding, H1; conditions: for Ki: H1
Chain of Histamine H1 (P35367 whole entry): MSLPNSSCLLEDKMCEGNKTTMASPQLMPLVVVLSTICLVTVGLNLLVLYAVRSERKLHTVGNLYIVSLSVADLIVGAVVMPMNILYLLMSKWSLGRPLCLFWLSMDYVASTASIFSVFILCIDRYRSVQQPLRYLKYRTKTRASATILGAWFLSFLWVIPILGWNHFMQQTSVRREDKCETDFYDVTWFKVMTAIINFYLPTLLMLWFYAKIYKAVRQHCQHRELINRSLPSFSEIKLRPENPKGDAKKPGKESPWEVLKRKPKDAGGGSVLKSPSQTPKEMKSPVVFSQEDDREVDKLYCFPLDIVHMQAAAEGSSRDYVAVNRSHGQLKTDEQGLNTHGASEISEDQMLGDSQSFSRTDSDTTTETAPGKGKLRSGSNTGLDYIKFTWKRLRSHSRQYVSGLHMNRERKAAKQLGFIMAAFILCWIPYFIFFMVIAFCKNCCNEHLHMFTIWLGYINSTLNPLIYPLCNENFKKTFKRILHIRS

Opioid κ = Opioid κ (Homo sapiens, UniProt P41145); assay: Receptor binding, opioid κ
Serotonin 5-HT5A = Serotonin 5-HT5A (Homo sapiens, UniProt P47898); assay: Receptor binding, 5-HT5A
α-Adrenergic α2C = molecular target: T4, α-Adrenergic α2C (Homo sapiens, UniProt P18825); assay: Receptor binding, α2C
T4 sequence (P18825 1-462): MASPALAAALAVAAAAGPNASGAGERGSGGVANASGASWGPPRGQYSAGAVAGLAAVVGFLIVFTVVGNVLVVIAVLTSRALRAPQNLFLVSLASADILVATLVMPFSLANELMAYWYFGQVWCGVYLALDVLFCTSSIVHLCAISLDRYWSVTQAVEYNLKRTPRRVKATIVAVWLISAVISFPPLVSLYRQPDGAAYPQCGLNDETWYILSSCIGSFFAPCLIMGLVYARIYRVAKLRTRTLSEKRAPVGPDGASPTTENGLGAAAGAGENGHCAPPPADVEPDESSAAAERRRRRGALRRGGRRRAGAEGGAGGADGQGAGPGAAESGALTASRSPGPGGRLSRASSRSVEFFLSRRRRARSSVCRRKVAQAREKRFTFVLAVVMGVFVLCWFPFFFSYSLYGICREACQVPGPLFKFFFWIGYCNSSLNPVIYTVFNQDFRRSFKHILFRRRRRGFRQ

Serotonin transporter = Serotonin transporter (Homo sapiens, UniProt P31645); assay: Receptor binding, serotonin transporter
Chain of Serotonin transporter (P31645 whole entry): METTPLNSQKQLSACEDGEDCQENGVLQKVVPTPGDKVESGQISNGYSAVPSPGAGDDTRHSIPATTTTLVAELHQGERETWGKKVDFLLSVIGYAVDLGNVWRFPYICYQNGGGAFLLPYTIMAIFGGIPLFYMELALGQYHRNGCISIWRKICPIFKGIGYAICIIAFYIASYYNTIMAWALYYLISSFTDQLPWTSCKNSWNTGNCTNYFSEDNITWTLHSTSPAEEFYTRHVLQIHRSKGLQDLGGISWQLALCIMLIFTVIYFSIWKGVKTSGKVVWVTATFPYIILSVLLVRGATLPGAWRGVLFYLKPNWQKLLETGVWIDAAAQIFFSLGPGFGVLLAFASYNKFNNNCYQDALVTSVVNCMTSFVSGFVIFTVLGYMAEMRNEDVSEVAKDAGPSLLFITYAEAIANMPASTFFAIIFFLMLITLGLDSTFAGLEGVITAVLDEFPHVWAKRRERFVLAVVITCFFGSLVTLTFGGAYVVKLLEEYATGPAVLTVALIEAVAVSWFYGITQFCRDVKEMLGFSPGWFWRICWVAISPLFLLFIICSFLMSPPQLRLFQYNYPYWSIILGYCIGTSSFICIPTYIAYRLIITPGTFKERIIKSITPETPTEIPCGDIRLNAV

Serotonin 5-HT2A = Serotonin 5-HT2A (Homo sapiens, UniProt P28223); assay: Receptor binding, 5-HT2A
Chain of Serotonin 5-HT2A (P28223 whole entry): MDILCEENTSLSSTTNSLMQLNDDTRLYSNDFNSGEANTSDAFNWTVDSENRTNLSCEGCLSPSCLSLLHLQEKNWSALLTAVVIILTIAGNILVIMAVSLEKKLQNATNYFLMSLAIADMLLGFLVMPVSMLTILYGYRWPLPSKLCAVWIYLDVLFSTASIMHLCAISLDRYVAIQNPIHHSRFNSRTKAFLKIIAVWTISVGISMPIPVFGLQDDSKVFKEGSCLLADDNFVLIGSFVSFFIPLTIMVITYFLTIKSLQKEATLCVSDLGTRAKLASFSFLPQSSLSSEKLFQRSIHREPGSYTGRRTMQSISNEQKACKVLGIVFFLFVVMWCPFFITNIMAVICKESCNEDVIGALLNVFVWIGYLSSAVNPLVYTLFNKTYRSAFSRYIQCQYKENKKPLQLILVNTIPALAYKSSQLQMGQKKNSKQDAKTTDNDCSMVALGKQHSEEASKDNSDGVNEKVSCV

α-Adrenergic α2A = molecular target: T5, α-Adrenergic α2A (Homo sapiens, UniProt P08913); assay: Receptor binding, α2A
T5 sequence (P08913 1-465): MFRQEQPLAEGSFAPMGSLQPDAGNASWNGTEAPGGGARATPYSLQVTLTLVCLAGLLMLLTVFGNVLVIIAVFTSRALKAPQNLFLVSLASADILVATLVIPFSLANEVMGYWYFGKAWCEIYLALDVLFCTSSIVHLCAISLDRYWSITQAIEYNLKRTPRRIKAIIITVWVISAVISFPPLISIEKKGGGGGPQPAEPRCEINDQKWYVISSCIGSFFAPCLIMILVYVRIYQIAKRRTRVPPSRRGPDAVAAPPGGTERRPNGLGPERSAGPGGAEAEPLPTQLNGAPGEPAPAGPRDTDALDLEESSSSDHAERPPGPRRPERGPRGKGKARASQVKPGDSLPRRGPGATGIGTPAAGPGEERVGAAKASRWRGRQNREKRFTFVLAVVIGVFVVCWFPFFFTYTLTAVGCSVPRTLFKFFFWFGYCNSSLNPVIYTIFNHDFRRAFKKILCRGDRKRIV

Serotonin 5-HT1E = Serotonin 5-HT1E (Homo sapiens, UniProt P28566); assay: Receptor binding, 5-HT1E
Histamine H2 = Histamine H2 (Homo sapiens, UniProt P25021); assay: Receptor binding, H2
Muscarinic M3 = Muscarinic M3 (Homo sapiens, UniProt P20309); assay: Receptor binding, M3
Serotonin 5-HT7 = Serotonin 5-HT7 (Homo sapiens, UniProt P34969); assay: Receptor binding, 5-HT7; conditions: for Ki: 5-HT7
Chain of Serotonin 5-HT7 (P34969 whole entry): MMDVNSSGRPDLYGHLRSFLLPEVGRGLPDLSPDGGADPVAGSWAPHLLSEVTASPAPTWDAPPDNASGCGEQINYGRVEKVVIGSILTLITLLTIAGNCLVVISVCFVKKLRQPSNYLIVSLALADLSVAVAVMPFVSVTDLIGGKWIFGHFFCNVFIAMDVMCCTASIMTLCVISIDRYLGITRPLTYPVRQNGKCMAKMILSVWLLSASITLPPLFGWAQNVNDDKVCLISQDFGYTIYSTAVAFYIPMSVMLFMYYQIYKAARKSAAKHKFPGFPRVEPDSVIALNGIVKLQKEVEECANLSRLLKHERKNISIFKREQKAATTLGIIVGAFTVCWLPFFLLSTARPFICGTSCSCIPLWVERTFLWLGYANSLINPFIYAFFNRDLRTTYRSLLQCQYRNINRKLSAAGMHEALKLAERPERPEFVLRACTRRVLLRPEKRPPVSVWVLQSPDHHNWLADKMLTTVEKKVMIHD

dopamine receptors = assay: Receptor binding, dopamine receptors; conditions: any of the dopamine receptors, summary of Table 1
Dopamine D3 = Dopamine D3 (Homo sapiens, UniProt P35462); assay: Receptor binding, D3
[1] = molecular target: Norepinephrine transporter (Homo sapiens, UniProt P23975); assay: Receptor binding, norepinephrine transporter; conditions: Transporters: Norepinephrine

Chain of Serotonin 5-HT2B (P41595 whole entry): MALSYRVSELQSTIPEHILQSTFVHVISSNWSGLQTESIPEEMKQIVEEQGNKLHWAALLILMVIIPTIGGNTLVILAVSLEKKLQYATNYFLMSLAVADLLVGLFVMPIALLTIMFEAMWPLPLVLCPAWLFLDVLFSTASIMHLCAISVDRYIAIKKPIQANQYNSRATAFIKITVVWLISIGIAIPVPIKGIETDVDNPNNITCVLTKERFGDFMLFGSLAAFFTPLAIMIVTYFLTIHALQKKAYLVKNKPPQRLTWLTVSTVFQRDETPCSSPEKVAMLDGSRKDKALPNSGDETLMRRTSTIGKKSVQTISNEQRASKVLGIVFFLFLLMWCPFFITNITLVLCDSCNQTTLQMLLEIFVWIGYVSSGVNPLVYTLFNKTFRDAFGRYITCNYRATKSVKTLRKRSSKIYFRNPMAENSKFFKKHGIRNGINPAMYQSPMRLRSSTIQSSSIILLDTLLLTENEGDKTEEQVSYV

`CN1CCc2c(c3cccc4c3n2-c2ccccc2CC4)C1` [Compound 6a, reference compound] was tested, and the Ki (Serotonin 5-HT2B) was 87 nM, the Ki (Serotonin 5-HT1D) was 85 nM and the Ki (α-Adrenergic α1A) was 2370 nM. The Ki (α-Adrenergic α2B) was 413 nM, the Ki (Serotonin 5-HT2C) was 10 nM and the Ki (α-Adrenergic α1D) was 595 nM. It also gave a Ki (Serotonin 5-HT1A) of 596 nM, a Ki (Sigma σ2) of 2230 nM and a Ki (Dopamine D5) of 581 nM. The Ki (Serotonin 5-HT1B) was 1360 nM, the Ki (Serotonin 5-HT6) was 155 nM and the Ki (α-Adrenergic α1B) was 3310 nM. The Ki (Dopamine D2) was 835 nM, the Ki (Muscarinic M5) was 5170 nM and the Ki (Muscarinic M1) was 4460 nM. The Ki (Histamine H1) was 50 nM, the Ki (Opioid κ) was 2180 nM and the Ki (Serotonin 5-HT5A) was 750 nM. For the same compound, the Ki (α-Adrenergic α2C) was 173 nM, the Ki (Serotonin transporter; Transporters: Serotonin) was 2190 nM and the Ki (Serotonin 5-HT2A) was 24 nM. For the same compound, the Ki (α-Adrenergic α2A) was 228 nM, the Ki (Serotonin 5-HT1E) was 4040 nM and the Ki (Histamine H2) was 81 nM. The Ki (Muscarinic M3) was 3760 nM and the Ki (Serotonin 5-HT7) was 100 nM.

With `CN1CCc2c(c3cccc4c3n2Cc2ccccc2C4)C1` [Compound 13a] the Ki (Serotonin 5-HT2B) was 57 nM, the “binding, in words” value (Serotonin 5-HT2B; summary of Table 1) was “strong binding” and the “binding, in words” value (dopamine receptors) was “neither of the two compounds 13a and 13b binds significantly”. The Ki (Serotonin 5-HT1D) was 29 nM, the “binding, in words” value (Serotonin 5-HT1D; summary of Table 1) was “strong binding” and the Ki (α-Adrenergic α2B) was 2190 nM. For the same compound, the Ki (Serotonin 5-HT1A) was 375 nM, the “binding, in words” value (Serotonin 5-HT1A; summary of Table 1) was “moderate binding” and the Ki (Sigma σ2) was 520 nM. For the same compound, the Ki (Serotonin 5-HT1B) was 715 nM, the Ki (Serotonin 5-HT6) was 273 nM and the “binding, in words” value (Serotonin 5-HT6; 5-HT6, text summary of Table 1) was “moderate binding”. The Ki (Dopamine D3) was 1500 nM, the Ki (Histamine H1) was 48 nM and the “binding, in words” value (Histamine H1; H1, text summary of Table 1) was “strong binding”. The Ki (α-Adrenergic α2C) was 770 nM, the Ki (Serotonin transporter) was 2190 nM and the Ki (Serotonin 5-HT2A) was 736 nM. For the same compound, the Ki (α-Adrenergic α2A) was 1800 nM, the Ki [1] was > 10000 nM and the Ki (Serotonin 5-HT7) was 212 nM. For the same compound, the “binding, in words” value (Serotonin 5-HT7; 5-HT7, text summary of Table 1) was “moderate binding”.
